Laboratory results from patent US8759334B2, “Compounds useful for the treatment of metabolic and inflammatory diseases” (Galapagos NV, priority 2011, dated 2014).

Each molecule was assayed against T1, GPR43 (Homo sapiens, UniProt O15552) (assay: Calcium mobilization assay with probenecid). Conditions: GPR43 stably expressing cells; triggered with sodium acetate at EC80; 2.5 mM probenecid; read-out: GPR43 assay with probenicid IC50.
T1 construct: expressed in transfected cells
T1 sequence (O15552 1-330): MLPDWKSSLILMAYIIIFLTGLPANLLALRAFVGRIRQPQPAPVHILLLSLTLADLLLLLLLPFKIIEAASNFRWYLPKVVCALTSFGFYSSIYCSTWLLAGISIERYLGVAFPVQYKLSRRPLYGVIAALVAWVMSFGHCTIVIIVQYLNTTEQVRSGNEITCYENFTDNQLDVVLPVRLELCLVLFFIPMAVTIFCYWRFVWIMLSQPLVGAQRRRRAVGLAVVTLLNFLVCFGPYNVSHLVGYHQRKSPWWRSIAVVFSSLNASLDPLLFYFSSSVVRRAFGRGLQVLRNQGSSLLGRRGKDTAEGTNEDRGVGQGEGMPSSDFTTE
Format: cell-based
Method: The following assay can be used for determination of GPR43 activation. The assay measures intracellular calcium release induced by activation of GPR43. On day 1, GPR43 stably expressing cells were detached with mild trypsinization (Trypsin, 0.25% with EDTA 4Na, 5× diluted in PBS) centrifuged at 1000 rpm for 5 min and resuspended at 6.000 cells/25 […] medium (DMEM supplemented with 10% FBS, 10 μg/mL puromycin and 1% Pen/Strep). The cells were distributed in poly-D-lysine coated 384 well plates (black with clear bottom, 25 μL/well) and incubated overnight at 37° C. 10% CO2.
On day 2, 25 μL of a fluorescent Ca^2+ indicator (Calcium 4 assay; Molecular Devices) supplemented with 2.5 mM probenecid was added on top of the cells and incubated for 2 h at 37° C. Subsequently, compounds at increasing concentration (10 μL/well) were added to the plate and incubated for 15 min at 37° C.
To measure agonist activity of the compounds, compound was added to the well and the Ca^2+-flux was measured simultaneously to the […] of compound.

SMILES | IC50 [nM]
CN(Cc1ccc(Cl)cc1)C(=O)C1(C)CCN1C(=O)Cc1cc(F)cc(F)c1 (stereo not shown) [Compound 19, 1-[2-(3,5-Difluoro-phenyl)-acetyl]-2-methyl-azetidine-2-carboxylic acid (4-chloro-benzyl)-methyl-amide] | > 1000
Cc1cc(C)cc(CC(=O)N2CCC2(C)C(=O)N(C)Cc2cccc(Br)c2)c1 (stereo not shown) [Compound 39, 1-[2-(3,5-Dimethyl-phenyl)-acetyl]-2-methyl-azetidine-2-carboxylic acid (3-bromo-benzyl)-methyl-amide] | > 1000
Cc1ccc(C)c(CC(=O)N2CCC2(C)C(=O)N(C)Cc2ccc(Cl)cc2)c1 (stereo not shown) [Compound 41, 1-[2-(2,5-Dimethyl-phenyl)-acetyl]-2-methyl-azetidine-2-carboxylic acid (4-chloro-benzyl)-methyl-amide] | > 1000
COC(=O)[C@@H](C)N(Cc1ccc(Cl)cc1)C(=O)C1(C)CCN1C(=O)Cc1cc(C)cc(C)c1 (stereo partly drawn) [Compound 73, (R)-2-((4-Chloro-benzyl)-{1-[2-(3,5-dimethyl-phenyl)-acetyl]-2-methyl-azetidine-2-carbonyl}-amino)-propionic acid methyl ester] | 501 to 1000
Cc1cc(C)cc(CC(=O)N2CCC2(C)C(=O)N(Cc2ccc(Cl)cc2)Cc2nnn[nH]2)c1 (stereo not shown) [Compound 76, 1-[2-(3,5-Dimethyl-phenyl)-acetyl]-2-methyl-azetidine-2-carboxylic acid (4-chloro-benzyl)-(1H-tetrazol-5-ylmethyl)-amide] | > 1000
Cc1cc(C)cc(CC(=O)N2CCC2(C)C(=O)N(CC(=O)NC2CC2)Cc2ccc(Cl)cc2)c1 (stereo not shown) [Compound 81, 1-[2-(3,5-Dimethyl-phenyl)-acetyl]-2-methyl-azetidine-2-carboxylic acid (4-chloro-benzyl)-cyclopropylcarbamoylmethyl-amide] | 101 to 500
CC1(C(=O)N(CCCC#N)Cc2ccc(Cl)cc2)CCN1C(=O)Cc1csc2ccccc12 (stereo not shown) [Compound 99, 1-(2-Benzo[b]thiophen-3-yl-acetyl)-2-methyl-azetidine-2-carboxylic acid (4-chloro-benzyl)-(3-cyano-propyl)-amide] | 101 to 500
Cc1cc(C)cc(CC(=O)N2CCC2(C)C(=O)N(CC(=O)NS(=O)(=O)c2ccccc2)Cc2ccc(Cl)cc2)c1 (stereo not shown) [Compound 104, 1-[2-(3,5-Dimethyl-phenyl)-acetyl]-2-methyl-azetidine-2-carboxylic acid (2-benzenesulfonylamino-2-oxo-ethyl)-(4-chloro-benzyl)-amide] | 501 to 1000
CN(Cc1ccc(Cl)cc1)C(=O)C1(C)CCN1C(=O)Cc1cccc2sccc12 (stereo not shown) [Compound 105, 1-(2-Benzo[b]thiophen-4-yl-acetyl)-2-methyl-azetidine-2-carboxylic acid (4-chloro-benzyl)-methyl-amide] | > 1000
CN(Cc1ccc(Cl)cc1)C(=O)C1(C)CCN1C(=O)Cc1ccc(F)c2ccccc12 (stereo not shown) [Compound 106, 1-[2-(4-Fluoro-naphthalen-1-yl)-acetyl]-2-methyl-azetidine-2-carboxylic acid (4-chloro-benzyl)-methyl-amide] | > 1000
Cc1cc(C)cc(CC(=O)N2CCC2(C)C(=O)N(CCc2noc(O)n2)Cc2ccc(Cl)cc2)c1 (stereo not shown) [Compound 107, 1-[2-(3,5-Dimethyl-phenyl)-acetyl]-2-methyl-azetidine-2-carboxylic acid (4-chloro-benzyl)-[2-(5-hydroxy-[1,2,4]oxadiazol-3-yl)-ethyl]-amide] | > 1000
CN(Cc1ccc(Cl)cc1)C(=O)C1(C)CCN1C(=O)Cc1cc2ccccc2s1 (stereo not shown) [Compound 108, 1-(2-Benzo[b]thiophen-2-yl-acetyl)-2-methyl-azetidine-2-carboxylic acid (4-chloro-benzyl)-methyl-amide] | > 1000
Cc1cc(C)cc(CC(=O)N2CCC2(C)C(=O)N(CCc2nnn[nH]2)Cc2ccc(Cl)cc2)c1 (stereo not shown) [Compound 109, 1-[2-(3,5-Dimethyl-phenyl)-acetyl]-2-methyl-azetidine-2-carboxylic acid (4-chloro-benzyl)-[2-(1H-tetrazol-5-yl)-ethyl]-amide] | 101 to 500
Cc1cc(C)cc(CC(=O)N2CCC2(C)C(=O)N(Cc2ccc(Cl)cc2)Cc2nnc(O)o2)c1 (stereo not shown) [Compound 111, 1-[2-(3,5-Dimethyl-phenyl)-acetyl]-2-methyl-azetidine-2-carboxylic acid (4-chloro-benzyl)-(5-hydroxy-[1,3,4]oxadiazol-2-ylmethyl)-amide] | 501 to 1000
CN(Cc1ccc(Cl)cc1)C(=O)C1(C)CCN1C(=O)c1ccc2sccc2c1 (stereo not shown) [Compound 112, 1-(Benzo[b]thiophene-5-carbonyl)-2-methyl-azetidine-2-carboxylic acid (4-chloro-benzyl) methyl-amide] | 501 to 1000
Cc1cc(C)cc(CC(=O)N2CCC2(C)C(=O)N(Cc2ccc(Cl)cc2)Cc2noc(O)n2)c1 (stereo not shown) [Compound 114, 1-[2-(3,5-Dimethyl-phenyl)-acetyl]-2-methyl-azetidine-2-carboxylic acid (4-chloro-benzyl)-(5-hydroxy-[1,2,4]oxadiazol-3-ylmethyl)-amide] | 501 to 1000
Cc1cc(C)cc(CC(=O)N2CCC2(C)C(=O)N(CCc2cc(O)[nH]n2)Cc2ccc(Cl)cc2)c1 (stereo not shown) [Compound 116, 1-[2-(3,5-Dimethyl-phenyl)-acetyl]-2-methyl-azetidine-2-carboxylic acid (4-chloro-benzyl)-[2-(5-hydroxy-1H-pyrazol-3-yl)-ethyl]-amide] | > 1000
Cc1cc(C)cc(CC(=O)N2CCC2(C)C(=O)N(CCc2cc(O)n(C)n2)Cc2ccc(Cl)cc2)c1 (stereo not shown) [Compound 117, 1-[2-(3,5-Dimethyl-phenyl)-acetyl]-2-methyl-azetidine-2-carboxylic acid (4-chloro-benzyl)-[2-(5-hydroxy-1-methyl-1H-pyrazol-3-yl)-ethyl]-amide] | > 1000
CCOc1cc(CCN(Cc2ccc(Cl)cc2)C(=O)C2(C)CCN2C(=O)Cc2cc(C)cc(C)c2)nn1C (stereo not shown) [Compound 118, 1-[2-(3,5-Dimethyl-phenyl)-acetyl]-2-methyl-azetidine-2-carboxylic acid (4-chloro-benzyl)-[2-(5-ethoxy-1-methyl-1H-pyrazol-3-yl)-ethyl]-amide] | > 1000
Cc1cc(C)cc(CC(=O)N2CCC2(C)C(=O)N(CCc2nnc(O)o2)Cc2ccc(Cl)cc2)c1 (stereo not shown) [Compound 119, 1-[2-(3,5-Dimethyl-phenyl)-acetyl]-2-methyl-azetidine-2-carboxylic acid (4-chloro-benzyl)-[2-(5-hydroxy-[1,3,4]oxadiazol-2-yl)-ethyl]-amide] | > 1000
CCOc1cc(CCN(Cc2ccc(Cl)cc2)C(=O)C2(C)CCN2C(=O)Cc2cc(C)cc(C)c2)n[nH]1 (stereo not shown) [Compound 120, 1-[2-(3,5-Dimethyl-phenyl)-acetyl]-2-methyl-azetidine-2-carboxylic acid (4-chloro-benzyl)-[2-(5-ethoxy-1H-pyrazol-3-yl)-ethyl]-amide] | > 1000
CN(Cc1ccc(Cl)cc1)C(=O)C1(C)CCN1C(=O)c1ccc2occc2c1 (stereo not shown) [Compound 121, 1-(benzofuran-5-carbonyl)-N-(4-chlorobenzyl)-N,2-dimethylazetidine-2-carboxamide] | > 1000
Cc1cc(C)cc(CC(=O)N2CCC2(C)C(=O)N(CCCC(=O)N2CCN(C)CC2)Cc2ccc(Cl)cc2)c1 (stereo not shown) [Compound 124, 1-[2-(3,5-Dimethyl-phenyl)-acetyl]-2-methyl-azetidine-2-carboxylic acid (4-chloro-benzyl)-[4-(4-methyl-piperazin-1-yl)-4-oxo-butyl]-amide] | 501 to 1000
Cc1cc(C)cc(CC(=O)N2CCC2(C)C(=O)N(CCCC(=O)N(C)C)Cc2ccc(Cl)cc2)c1 (stereo not shown) [Compound 125, 1-[2-(3,5-Dimethyl-phenyl)-acetyl]-2-methyl-azetidine-2-carboxylic acid (4-chloro-benzyl)-(3-dimethylcarbamoyl-propyl)-amide] | > 1000
CN(Cc1ccc(Cl)cc1)C(=O)C1(C)CCN1C(=O)c1ccc2ccccc2c1 (stereo not shown) [Compound 126, 1-(2-naphthoyl)-N-(4-chlorobenzyl)-N,2-dimethylazetidine-2-carboxamide] | > 1000
CC1(C(=O)N(CCCC(N)=O)Cc2ccc(Cl)cc2)CCN1C(=O)Cc1csc2ccccc12 (stereo not shown) [Compound 127, 1-(2-Benzo[b]thiophen-3-yl-acetyl)-2-methyl-azetidine-2-carboxylic acid (3-carbamoyl-propyl)-(4-chloro-benzyl)-amide] | > 1000
CC1(C(=O)N(CCCC(=O)N2CCOCC2)Cc2ccc(Cl)cc2)CCN1C(=O)Cc1csc2ccccc12 (stereo not shown) [Compound 129, 1-(2-Benzo[b]thiophen-3-yl-acetyl)-2-methyl-azetidine-2-carboxylic acid (4-chloro-benzyl)-(4-morpholin-4-yl-4-oxo-butyl)-amide] | 0.01 to 100
Cc1cc(C)cc(CC(=O)N2CCC2(C)C(=O)N(Cc2ccc(Cl)cc2)Cc2cc(O)[nH]n2)c1 (stereo not shown) [Compound 133, 1-[2-(3,5-Dimethyl-phenyl)-acetyl]-2-methyl-azetidine-2-carboxylic acid (4-chloro-benzyl)-(5-hydroxy-1H-pyrazol-3-ylmethyl)-amide] | 0.01 to 100
